Assays:
Assay type in all cases: in vivo
[1] = test system: Spodoptera eridania; experiment: Southern armyworm on sorghum - systemic evaluation (soil drench); details: systemic via root uptake; for control of southern armyworm at thirteen days (sorghum): on sorghum; for control of southern armyworm after six days on sorghum: 20 ppm soil concentration dose (and subsequent dilutions)
Protocol: (§1) Cotton aphid and southern armyworm (on cotton) and greenbug and southern armyworm (on sorghum) - systemic evaluation: A stock solution or suspension was prepared to deliver 5 ml of a 20 ppm soil concentration dose (and subsequent dilutions) as a drench to 6 cm pots containing cotton and sorghum plants. The cotton plants were previously infested with cotton aphids about two days before treatment and greenbug one day before treatment. After holding the plants about three days, the plants were rated for aphid activity. Again at six days, the plants were rated for aphid activity and the cotton aphids and greenbugs were counted and mortality was assessed. Portions of the cotton and sorghum foliage were excised, placed in separate plastic containers, and infested with second instar larvae of southern armyworms. The potted plants were dipped in sulfotepp to kill the remaining aphids and returned to the greenhouse for regrowth. Thirteen days after treatment the remaining foliage was excised and fed to southern armyworm. Mortality was assessed six days after infestation.

[2] = test system: Heliothis virescens; experiment: Tobacco budworm on sorghum - systemic evaluation (soil drench); details: systemic via root uptake, 10.0 ppm soil concentration
Protocol: (§2) For southern root-knot nematod and systemic tests for southern armyworm, cotton aphid, tobacco budworm and greenbug, a stock solution or suspension was prepared by adding 15 mg of the test compound to 250 mg of dimethylformamide, 1250 mg of acetone and 3 mg of the emulsifier blend referenced above. Water was then added to provide a test compound concentration of 150 ppm. When necessary, sonication was provided to insure complete dispersion. Cotton aphid and tobacco budworm (on cotton) and greenbug and tobacco budworm (on sorghum) - systemic evaluation: A 7.0 ml aliquot of the 150 ppm nematode test solution was applied to deliver the equivalent of 10.0 ppm soil concentration dose as a drench to 6 cm pots containing cotton and sorghum plants. The cotton plants were previously infested with cotton aphids about two days before treatment and greenbug one day before treatment. After holding the plants about three days, the plants were rated for aphid activity. Again at six days, the plants were rated for aphid activity and the cotton aphids and greenbugs were counted and mortality was assessed. Portions of the cotton and sorghum foliage were excised, placed in separate plastic containers, and infested with second instar larvae of tobacco budworm. The potted plants were dipped in sulfotepp to kill the remaining aphids and returned to the greenhouse for regrowth. Thirteen days after treatment, the remaining foliage was excised and fed to tobacco budworms. Mortality was assessed six days after infestation.

[3] = test system: Aphis gossypii; experiment: Cotton aphid on cotton - systemic evaluation (soil drench); details: systemic via root uptake, soil drench at soil concentrations of the protocols (10.0 or 20 ppm)
Protocol: as §2, with “infestation. Cotton aphid and southern armyworm (on cotton) and greenbug and southern armyworm (on sorghum) - systemic evaluation: A stock solution or suspension was prepared to deliver 5 ml of a 20 ppm soil concentration dose (and subsequent dilutions) as a drench to 6 cm pots containing cotton and sorghum plants. The cotton plants were previously infested with cotton aphids about two days before treatment and greenbug one day before treatment. After holding the plants about three days, the plants were rated for aphid activity. Again at six days, the plants were rated for aphid activity and the cotton aphids and greenbugs were counted and mortality was assessed. Portions of the cotton and sorghum foliage were excised, placed in separate plastic containers, and infested with second instar larvae of southern armyworms. The potted plants were dipped in sulfotepp to kill the remaining aphids and returned to the greenhouse for regrowth. Thirteen days after treatment the remaining foliage was excised and fed to southern armyworm. Mortality was assessed six days after infestation.” for “infestation.”

[4] = test system: Schizaphis graminum; experiment: Greenbug on sorghum - systemic evaluation (soil drench); details: systemic via root uptake, soil drench at soil concentrations of the protocols (10.0 or 20 ppm)
Protocol: as §2, with “infestation. Cotton aphid and southern armyworm (on cotton) and greenbug and southern armyworm (on sorghum) - systemic evaluation: A stock solution or suspension was prepared to deliver 5 ml of a 20 ppm soil concentration dose (and subsequent dilutions) as a drench to 6 cm pots containing cotton and sorghum plants. The cotton plants were previously infested with cotton aphids about two days before treatment and greenbug one day before treatment. After holding the plants about three days, the plants were rated for aphid activity. Again at six days, the plants were rated for aphid activity and the cotton aphids and greenbugs were counted and mortality was assessed. Portions of the cotton and sorghum foliage were excised, placed in separate plastic containers, and infested with second instar larvae of southern armyworms. The potted plants were dipped in sulfotepp to kill the remaining aphids and returned to the greenhouse for regrowth. Thirteen days after treatment the remaining foliage was excised and fed to southern armyworm. Mortality was assessed six days after infestation.” for “infestation.”

[5] = test system: Spodoptera eridania; experiment: Southern armyworm on cotton - systemic evaluation (soil drench); details: systemic via root uptake; for control of southern armyworm at thirteen days: plant not repeated, follows the cotton clause; for control of southern armyworm at six days on cotton: 20 ppm soil concentration dose (and subsequent dilutions)
Protocol: as §1

[6] = test system: Heliothis virescens; experiment: Tobacco budworm - contact evaluation (topical application); details: topical or contact tests; application dose of 63 µg/g body weight
Protocol: For tobacco budworm contact tests, a stock solution was prepared by dissolving the compound in acetone and then further diluted to provide the required serial dilution concentrations.
Tobacco budworm - contact evaluation: The following topical application method provides an assessment of contact toxicity of a compound to tobacco budworm larvae The test compound solution at sequential two-fold dilution concentrations from 10 down to 0.16 µg/µl was applied by a microinjector in repli cated 1 µl portions to the dorsum of approximately 20 mg tobacco budworm larvae. This is equivalent to applied doses of 500 down to 8 µg/g body weight. An acetone treated control, without any test compounds, as also applied. A treated control with a commercial technical compound, cypermethrin or thiodicarb, also in acetone was used as a standard. The treated larvae were placed, individually, in separate plastic petri dishes containing an untreated cotton leaf and a moist dental wick. The treated larvae were maintained at about 27°C and 50% relative humidity. The percent mortality was rated 1 and 4 days after treatment.

With `Cc1cc(C=Nc2c(S(=O)(=O)C(F)(F)F)c(C#N)nn2-c2c(Cl)cc(C(F)(F)F)cc2Cl)ccc1O` [compound 66] the “control of southern armyworm at thirteen days (sorghum)” value (“control … (sorghum)” below) [1] was 70-100%.
With `N#Cc1nn(-c2c(Cl)cc(C(F)(F)F)cc2Cl)c(N=Cc2ccc(O)cc2O)c1SC(F)(F)F` [compound 17] the “control of tobacco budworm after six days on sorghum” value [2] was 100%, the “control of cotton aphid after six days on cotton” value (from here on “control of cotton aphid”) [3] was 30-100% and the “control of greenbug after six days on sorghum” value (“control of greenbug” below) [4] was 30-100%.
For `COc1ccc(C=Nc2c(S(=O)(=O)C(F)(F)F)c(C#N)nn2-c2c(Cl)cc(C(F)(F)F)cc2Cl)cc1O` [compound 65], the “control of southern armyworm at thirteen days” value [5] was 30-100% and the “control … (sorghum)” value [1] was 70-100%.
With `COc1cc(C=Nc2c(SC(F)(F)F)c(C#N)nn2-c2ncc(C(F)(F)F)cc2Cl)ccc1O` [compound 87] the “control of greenbug” value [4] was 30-100%.
For `COc1cc(C=Nc2c(SC(F)(F)F)c(C#N)nn2-c2c(Cl)cc(C(F)(F)F)cc2Cl)cc(OC)c1O` [compound 13, 1-(2,6-dichloro-4-trifluoromethylphenyl)-3-cyano-4-trifluoromethylsulfenyl-5-[(3,5-dimethoxy-4-hydroxyphenyl)methylideneimino]pyrazole], the “control of cotton aphid” value [3] was 30-100% and the “control of tobacco budworm (TBW)” value [6] was 50-100%.
In the case of `COc1cc(C=Nc2c(SC)c(C#N)nn2-c2c(Cl)cc(C(F)(F)F)cc2Cl)ccc1O` [compound 110], the “control of southern armyworm at thirteen days” value [5] is reported as 30-100%, the “control … (sorghum)” value [1] is reported as 70-100% and the “control of cotton aphid” value [3] is reported as 30-100%. The “control of greenbug” value [4] was 30-100%.
In the case of `COc1ccc(C=Nc2c(SC(F)(F)F)c(C#N)nn2-c2c(Cl)cc(C(F)(F)F)cc2Cl)cc1` [compound 21], the “control of greenbug” value [4] is reported as 30-100%.
`N#Cc1nn(-c2c(Cl)cc(C(F)(F)F)cc2Cl)c(N=Cc2cc[n+]([O-])cc2)c1S(=O)(=O)C(F)(F)F` [compound 68] was tested, and the “control of southern armyworm at thirteen days” value [5] was 30-100%.
For `COc1cc(O)c(C=Nc2c(S(=O)(=O)C(F)(F)F)c(C#N)nn2-c2c(Cl)cc(C(F)(F)F)cc2Cl)c(OC)c1` [compound 72], the “control of southern armyworm after six days on sorghum” value [1] was 30-100%.
`COc1cccc(C=Nc2c(SC(F)(F)F)c(C#N)nn2-c2c(Cl)cc(C(F)(F)F)cc2Cl)c1O` [compound 50] was tested, and the “control of tobacco budworm (TBW)” value [6] was 50-100%.
For `COc1cc(C=Nc2c(SC(F)(F)F)c(C#N)nn2-c2c(Cl)cc(C(F)(F)F)cc2Cl)ccc1OCc1ccccc1` [compound 120], the “control of southern armyworm at six days on cotton” value (shortened to “control … at six days on cotton”) [5] was 30-100%.
With `N#Cc1nn(-c2c(Cl)cc(C(F)(F)F)cc2Cl)c(N=Cc2ccncc2)c1SC(F)(F)F` [compound 16, 1-(2,6-dichloro-4-trifluoromethylphenyl)-3-cyano-4-trifluoromethylsulfenyl-5-[(4-pyridyl)-methylideneimino]pyrazole] the “control of tobacco budworm after six days on sorghum” value [2] was 100%, the “control of cotton aphid” value [3] was 30-100% and the “control of greenbug” value [4] was 30-100%.
With `CCN(CC)c1ccc(C=Nc2c(SC(F)(F)F)c(C#N)nn2-c2c(Cl)cc(C(F)(F)F)cc2Cl)c(O)c1` [compound 117] the “control … (sorghum)” value [1] was 70-100%.
In the case of `N#Cc1nn(-c2c(Cl)cc(C(F)(F)F)cc2Cl)c(N=Cc2ccc(O)c(Br)c2)c1SC(F)(F)F` [compound 100], the “control of southern armyworm after six days on sorghum” value [1] is reported as 30-100%.
With `CC(C)(C)c1cc(C=Nc2c(SC(F)(F)F)c(C#N)nn2-c2c(Cl)cc(C(F)(F)F)cc2Cl)cc(C(C)(C)C)c1O` [compound 64] the “control of southern armyworm at thirteen days” value [5] was 30-100%.
For `CCCCCCCC(=O)Oc1ccc(C=Nc2c(SC(F)(F)F)c(C#N)nn2-c2c(Cl)cc(C(F)(F)F)cc2Cl)cc1OC` [compound 121], the “control of southern armyworm after six days on sorghum” value [1] was 30-100%.
`COc1cc(C=Nc2c(SC(F)(F)F)c(C#N)nn2-c2c(Cl)cc(C(F)(F)F)cc2Cl)ccc1OC(C)=O` [compound 69] was tested, and the “control … at six days on cotton” value [5] was 30-100%, the “control of southern armyworm after six days on sorghum” value [1] was 30-100% and the “control of tobacco budworm (TBW)” value [6] was 50-100%.
With `COc1cc(C=Nc2c(SC(F)(F)F)c(C#N)nn2-c2c(Cl)cc(C(F)(F)F)cc2Cl)cc(O)c1OC` [compound 59] the “control of tobacco budworm (TBW)” value [6] was 50-100%.
`N#Cc1nn(-c2c(Cl)cc(C(F)(F)F)cc2Cl)c(N=Cc2cc(O)c(O)c(Br)c2)c1SC(F)(F)F` [compound 93] was tested, and the “control of greenbug” value [4] was 30-100%.
For `COc1ccc(C=Nc2c(SC(F)(F)Cl)c(C#N)nn2-c2c(Cl)cc(C(F)(F)F)cc2Cl)cc1O` [compound 81], the “control of tobacco budworm (TBW)” value [6] was 50-100%.
`N#Cc1nn(-c2c(Cl)cc(C(F)(F)F)cc2Cl)c(N=Cc2cc(C(F)(F)F)cc(C(F)(F)F)c2)c1SC(F)(F)F` [compound 112] was tested, and the “control of cotton aphid” value [3] was 30-100% and the “control of greenbug” value [4] was 30-100%.
`N#Cc1nn(-c2c(Cl)cc(C(F)(F)F)cc2Cl)c(N=Cc2ccc(O)cc2)c1SC(F)(F)F` [compound 4, 1-(2,6-dichloro-4-trifluoromethylphenyl]-3-cyano-4-trifluoromethylsulfenyl-5-[(4-hydroxyphenyl]methylideneimino]pyrazole] was tested, and the “control of greenbug” value [4] was 30-100%.
`CSc1c(C#N)nn(-c2c(Cl)cc(C(F)(F)F)cc2Cl)c1N=Cc1ccc(O)cc1` [compound 111] was tested, and the “control of cotton aphid” value [3] was 30-100% and the “control of greenbug” value [4] was 30-100%.
`COc1cc(C=Nc2c(SC(F)(F)F)c(C#N)nn2-c2c(Cl)cc(C(F)(F)F)cc2Cl)cc([N+](=O)[O-])c1O` [compound 74] was tested, and the “control of greenbug” value [4] was 30-100%.
In the case of `COc1ccccc1C=Nc1c(SC(F)(F)F)c(C#N)nn1-c1c(Cl)cc(C(F)(F)F)cc1Cl` [compound 113], the “control … at six days on cotton” value [5] is reported as 30-100%.
In the case of `N#Cc1nn(-c2c(Cl)cc(C(F)(F)F)cc2Cl)c(N=Cc2ncc[nH]2)c1SC(F)(F)F` [compound 115], the “control of southern armyworm after six days on sorghum” value [1] is reported as 30-100%.
For `CCOc1cc(C=Nc2c(S(=O)(=O)C(F)(F)F)c(C#N)nn2-c2c(Cl)cc(C(F)(F)F)cc2Cl)ccc1O` [compound 61], the “control of tobacco budworm (TBW)” value [6] was 50-100%.
In the case of `N#Cc1cccc(C=Nc2c(SC(F)(F)F)c(C#N)nn2-c2c(Cl)cc(C(F)(F)F)cc2Cl)c1` [compound 116], the “control of tobacco budworm (TBW)” value [6] is reported as 50-100%.
In the case of `COc1cc(C=Nc2c(SC(F)(F)F)c(C#N)nn2-c2c(Cl)cc(C(F)(F)F)cc2Cl)cc(Br)c1O` [compound 42], the “control of tobacco budworm (TBW)” value [6] is reported as 50-100%.
`N#Cc1nn(-c2c(Cl)cc(C(F)(F)F)cc2Cl)c(N=Cc2ccco2)c1SC(F)(F)F` [compound 20] was tested, and the “control of tobacco budworm after six days on sorghum” value [2] was 100% and the “control of greenbug” value [4] was 30-100%.
`Cc1cc(C=Nc2c(SC(F)(F)Cl)c(C#N)nn2-c2c(Cl)cc(C(F)(F)F)cc2Cl)cc(C)c1O` [compound 80] was tested, and the “control of tobacco budworm (TBW)” value [6] was 50-100%.

Reference: patent EP0511845B1, “Pesticidal 1-aryl-5-(substituted alkylideneimino)-pyrazoles” (AVENTIS CROPSCIENCE S.A., priority 1991, dated 1992)
